Measured values reported in patent US7544664B2, “Sequences facilitating penetration of a substance of interest” (priority 2003, dated 2009).
One block for each molecule: values may come before it. Where a SMILES comes first, the peptide text is derived from it. The star is where a group is joined. X3 = CC(=O)O[C@H]1C(=O)[C@@]2(C)[C@H]([C@H](OC(=O)c3ccccc3)[C@]3(O)C[C@H](OC(=O)[C@H](OC(=O)CCCCCN4C(=O)CC(*)C4=O)[C@@H](NC(=O)c4ccccc4)c4ccccc4)C(C)=C1C3(C)C)[C@]1(OC(C)=O)CO[C@@H]1C[C@@H]2O

Tests used:
[1] = system: OVCAR-3: human ovary carcinoma; experiment: cells; format: cell-based; settings: OVCAR-3 ovary carcinoma, 1 h incubation + 72 h post-incubation
Protocol: OVCAR-3: human ovary carcinoma (origin: ATCC #HTB-161)
(§1) Viability assays were performed. Briefly, cells are seeded in 96-well plates and incubated with increasing concentrations of drugs for 1 hour then cells are rinsed and incubated with fresh medium without drugs for 72 hours. A WST-1 test (from Roche) was performed and IC50 values (drug concentration that inhibits 50% of cell viability) were estimated from sigmoidal regressions.
(§2) We tested the inhibition of in vitro cell proliferation of human carcinoma cells, and we calculated IC50 values=drug concentration that inhibits 50% of cell viability.

[2] = system: NCI-H1299: human non small cell lung carcinoma; experiment: cells; format: cell-based; settings: H1299 NSCLC, 1 h incubation + 72 h post-incubation
Protocol: NCI-H1299: human non small cell lung carcinoma (NSCLC) (origin: ATCC #CRL-5803)
as §1, §2

[3] = system: MES-SA/Dx5: human uterine sarcoma, resistant to paclitaxel; settings: read-out: IC50 values, 1 h incubation + 72 h post-incubation
[4] = Solubility in water / aqueous solutions
[5] = system: HCT116 human colorectal carcinoma; experiment: In vivo anti-tumor activity, first experiment (DPV15-doxorubicin); parameters: species or system nude mice; settings: Table 13, Q2D3×3W
Protocol: (§3) Mice: Athymic (nu/nu) nude mice, female, NMRI-nu (nu/nu)-Nude Tumor model: HCT116 human colorectal carcinoma (ATCC Number: CCl-247) Experiment has been performed on tumor-bearing mice. The HCT116 tumors have been established by intradermal injection of 100 μl of the cell suspension (10^7 cells/0.1 mL) on the right flank of the mouse. […] After complete dissolution a solution of 0.9% NaCl for injection (Cooper) 0.9% was added.

[6] = system: HCT116 human colorectal carcinoma; experiment: In vivo anti-tumor activity, second experiment (DPV15b-doxorubicin); parameters: species or system nude mice; settings: Q2D3×3W
Protocol: as §3

[7] = system: HCT116 human colorectal carcinoma; experiment: In vivo anti-tumor activity of DPV7b-doxorubicin conjugate; parameters: species or system Nude mice; settings: Table 15, Q2D3×3W
Protocol: Nude mice are injected with 10^7 HCT116 cells (HCT116 human colorectal carcinoma cell line) intradermically in the right flank. Treatments were performed on established solid tumors (tumors size is about 80 to 90 mm^3) at Day 3. Mice were randomized in different groups (equivalent tumors size), 6 mice by group.

[8] = system: HeLa cells; experiment: Poly-L-Lys inhibition of the internalization of DPV-PO conjugates; format: cell-based; settings: inhibition of DPV-PO internalization (25 μg/ml, 4 h) in HeLa cells
Protocol: In order to verify this hypothesis, we tested the inhibition of DPV-PO internalization in HeLa cells in the presence of Poly-L-Lysine in the incubation medium: positively charged poly-L-Lys should bind to the negative charges of the cell surface, and prevent the binding of DPVs.
HeLa cells cultivated on glass labtek slides for 24 hours were pre-incubated with the indicated concentrations of poly-L-Lys for 1 hour at 37° C. Cells were then incubated for 4 hours in the presence of DPV-PO conjugates at 25 μg/ml in cell culture medium containing the same quantity of poly-L-Lys. Internalized PO was quantified after extensive treatment with trypsin to eliminate surface bound material, and subsequent cell lysis. Results are given in picogram PO per 1000 cells.

Molecule: CC(=O)O[C@H]1C(=O)[C@@]2(C)[C@H]([C@H](OC(=O)c3ccccc3)[C@]3(O)C[C@H](OC(=O)[C@H](OC(=O)CCCCCN4C(=O)CC(SC[C@H](NC(=O)[C@H](CCCNC(=N)N)NC(=O)[C@H](CO)NC(=O)[C@H](CCC(N)=O)NC(=O)[C@H](CCCNC(=N)N)NC(=O)[C@H](CCC(=O)O)NC(=O)[C@H](CCCNC(=N)N)NC(=O)[C@H](CCCNC(=N)N)NC(=O)[C@H](CC(C)C)NC(=O)[C@H](CCCNC(=N)N)NC(=O)[C@H](CO)NC(=O)[C@H](CCC(N)=O)NC(=O)[C@H](CCCNC(=N)N)NC(=O)[C@H](CCC(=O)O)NC(=O)[C@H](CCCNC(=N)N)NC(=O)[C@H](CCCNC(=N)N)NC(=O)[C@@H](N)CC(C)C)C(=O)O)C4=O)[C@@H](NC(=O)c4ccccc4)c4ccccc4)C(C)=C1C3(C)C)[C@]1(OC(C)=O)CO[C@@H]1C[C@@H]2O (stereo partly shown) [DPV15-E-PTX] (H-LRRERQSRLRRERQSRC(X3)-OH)
IC50 [1]: 370 ± 50 nM
IC50 [2]: 4300 ± 2700 nM
IC50 [3]: 33000 ± 5700 nM
solubility ([4]; water): ≥ 10000 µg/mL

IC50 ([1]; Homo sapiens): 7300 ± 4200 nM
IC50 ([2]; Homo sapiens, NCI-H1299): 620 ± 320 nM
Molecule: COc1cccc2c1C(=O)c1c(O)c3c(c(O)c1C2=O)C[C@@](O)(C(=O)CO)C[C@@H]3O[C@H]1C[C@H](N)[C@H](O)[C@H](C)O1 [Doxorubicin]
Tumor doubling time ([5]; 3.5 μmol/kg i.v.): 10.20 days
Tumor growth delay ([5]; 3.5 μmol/kg i.v.): 21.20 days
Tumor growth delay ([5]; 5 μmol/kg i.v.): 26.40 days
Tumor doubling time ([5]; 6.5 μmol/kg i.v.): 22.90 days
Tumor growth delay ([5]; 6.5 μmol/kg i.v.): 35.29 days
mice body weight loss ([6]; 7 μmol/kg i.v.): > 20%
Tumor growth delay ([6]; Table 14, 5 μmol/kg i.v.): 27.86 days
Tumor growth delay ([6]; Table 14, 6 μmol/kg i.v.): 29.98 days
Tumor doubling time ([6]; Table 14, 7 μmol/kg i.v.): 13.38 days
Tumor growth delay ([6]; Table 14, 7 μmol/kg i.v.): 35.16 days
Tumor doubling time ([7]; 3.5 μmol/kg i.v.): 10.2 days
Tumor growth delay ([7]; 3.5 μmol/kg i.v.): 21.20 days
Tumor growth delay ([7]; 5 μmol/kg i.v.): 26.40 days
Tumor doubling time ([7]; 6.5 μmol/kg i.v.): 22.9 days
Tumor growth delay ([7]; 6.5 μmol/kg i.v.): 35.29 days

IC50 ([1]; Homo sapiens): 40 ± 20 nM
IC50 ([2]; Homo sapiens, NCI-H1299): 230 ± 170 nM
Solubility in water / aqueous solutions [4]: not soluble
Molecule: CC(=O)O[C@H]1C(=O)[C@@]2(C)[C@H]([C@H](OC(=O)c3ccccc3)[C@]3(O)C[C@H](OC(=O)[C@H](O)[C@@H](NC(=O)c4ccccc4)c4ccccc4)C(C)=C1C3(C)C)[C@]1(OC(C)=O)CO[C@@H]1C[C@@H]2O [Paclitaxel (Hauser), Paclitaxel]

Molecule: Poly-L-Lysine
IC50 (concentration at which 50% of the maximum internalization is achieved) [8]: around 25 μg/ml
